Bridge positions count the residues as written; N and C are the ends. Ends that are not written are not given here. I, II: the chains in the order shown.

Data set [1] concerns Anti-C5/gp41 sera from BI400-B immunized rabbits. In words: Competitive ELISA for rabbit sera after immunization with BI400-B. To be noted: antigen 10-1000 μM preincubated with rabbit serum; FIG. 3. In kind it is binding. The procedure:
50-100 μl of a mixture of BI400-015 and -201 (pre-incubated in Coating buffer—0.05M Na2CO3 pH9.6; denoted CB—in cold at 16 μg/ml for each peptide 1-3 days prior to coating) or just CB (background control) was used for coating wells in microtiter plates at 4° C. overnight. Plates were then washed 3× with washing buffer (PBS+1% v/v Triton-X100; denoted WB), followed by 2 h blocking at room temperature (RT) with 200 μl/well of blocking buffer (PBS+1% w/v BSA). Plates were then washed 3× with WB, followed by 1 h incubation at 37° C. with 60-100 μl/well of added rabbit serum samples (diluted 1:10-1:250 final concentration) preincubated together (4° C. overnight) with serial dilutions (ranging from 10-1000 μM final concentration) of 400-SEQ.B, BI400-015, BI400-201, BI400-204d, recombinant gp41 (Shin-Won Scientific, SWO 102 gp41), BI301-23 (irrelevant protein; control), no peptide (i.e. PBS; control), LTNP-sera pools (diluted 1:10 final concentration), or Blood donor sera-pools (diluted 1:10 final concentration; control). Plates were then washed 6× with WB, followed by 1 h incubation at RT with 70 μl/well of Alkaline Phosphatase-conjugated Goat-anti-Rabbit-Ig (6 μg/ml; Dako D0487). […] Plates were finally quenched by adding 100 μl/well of Quench solution (0.1M TRIS+0.1M EDTA+0.5M NaOH+0.01% w/v NaN3; pH14), followed by ELISA reader (ASYS UVM 340) at 550 nm.
Background: In an ELISA, binding on a coated surface is turned into a signal by an enzyme label.

The test system of another data set is HIV specific T-cells. To be noted: IMiD present during stimulation with dendritic cells presenting Gag- or Nef-specific peptides; cited from earlier work.
Data set [2] can be described thus: Toxicity of the dipeptide in mice. The class given is in vivo, NMFI female mice. The settings on record: injection, 100 μg per kg bodyweight, 4 mg/ml in 0.9% NaCl. The procedure:
The dipeptide of Example 20 was diluted in 0.9% NaCl to a test solution concentration of 4 mg/ml. The peptide was administered by injection to NMFI female mice in a dose of 100 μg per kg bodyweight.

Turning to “201: gp41 peptide (DRPEGIEEEGGERDR) [compound 201]”, in data set [1], the “inhibition of antibody binding to C5/gp41 (015/201) by antigen” value is “could be inhibited”.

Turning to `Nc1cccc2c1CN(C1CCC(=O)NC1=O)C2=O` (centres unmarked) [Lenalidomide], the “function of the T-cells” value with HIV specific T-cells is reported as “a number of improvements in the function of the T-cells”.

For the compound `Nc1cccc2c1C(=O)N(C1CCC(=O)NC1=O)C2=O` (centres unmarked) [pomalidomide], in the data set with HIV specific T-cells, the “function of the T-cells” value is reported as “a number of improvements in the function of the T-cells”.

Regarding “GGAIVNGSLADDDIVI [204d, peptide derived from C2]”, the “inhibition of antibody binding to C5/gp41 (015/201) by antigen” value in data set [1] is listed as “could be inhibited”.

Regarding “I: WIIPGLNPLVGGGKLYSPTSILCG-NH2 / II: KALGPGATLQTPWTACQGVG-NH2 (disulfide I:23-II:16) [Example 20]”, the toxicological effects result in data set [2] is “No toxicological effects were observed”.

The values above are taken from US10335482B2, “Method of inducing an anti-HIV-1 immune response comprising administering a C5/TM-GP41 peptide dimer” (priority 2012, dated 2019).
